Among the data in the supplement of paper PMC10307832 are relative viability values, retold here.

Common to all, as to assay: relative viability (nuclei count vs DMSO), 5 days (fraction); higher = more cells survive
Compound in the assay “BX 795 + Trametinib”: O=C(NCCCNc1nc(Nc2cccc(NC(=O)N3CCCC3)c2)ncc1I)c1cccs1 [BX 795] + CC(=O)Nc1cccc(-n2c(=O)n(C3CC3)c(=O)c3c(Nc4ccc(I)cc4F)n(C)c(=O)c(C)c32)c1 [Trametinib] (partner 0.02 µM)
The gist of the method:
(§1)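 Relative viability was taken as the ratio of nuclei in treated wells to nuclei in vehicle wells. Lung cancer cell lines in 1536-well plates received compounds by pin tool one day after seeding, either one drug alone or a fixed anchor-drug dose plus five library-drug doses (not always all listed) in √10 steps. Nuclei were counted on 4× images after 5 days of treatment, and values are medians of duplicate plates.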

Compound in the assay “BX 795 + Palbociclib”: O=C(NCCCNc1nc(Nc2cccc(NC(=O)N3CCCC3)c2)ncc1I)c1cccs1 [BX 795] + CC(=O)c1c(C)c2cnc(Nc3ccc(N4CCNCC4)cn3)nc2n(C2CCCC2)c1=O [Palbociclib] (partner 0.5 µM)
The gist of the method:
as §1

Compound in the assay “BX 795 + Foretinib”: O=C(NCCCNc1nc(Nc2cccc(NC(=O)N3CCCC3)c2)ncc1I)c1cccs1 [BX 795] + COc1cc2c(Oc3ccc(NC(=O)C4(C(=O)Nc5ccc(F)cc5)CC4)cc3F)ccnc2cc1OCCCN1CCOCC1 [Foretinib] (partner 0.25 µM)
A digest of the protocol: as §1

Compound in the assay “BX 795 + Pictilisib”: O=C(NCCCNc1nc(Nc2cccc(NC(=O)N3CCCC3)c2)ncc1I)c1cccs1 [BX 795] + CS(=O)(=O)N1CCN(Cc2cc3nc(-c4cccc5[nH]ncc45)nc(N4CCOCC4)c3s2)CC1 [Pictilisib] (partner 1 µM)
A digest of the protocol:
as §1

Compound in the assay “BX 795 + Crizotinib”: O=C(NCCCNc1nc(Nc2cccc(NC(=O)N3CCCC3)c2)ncc1I)c1cccs1 [BX 795] + C[C@@H](Oc1cc(-c2cnn(C3CCNCC3)c2)cnc1N)c1c(Cl)ccc(F)c1Cl [Crizotinib] (partner 1 µM)
The gist of the method:
as §1

Regarding NCI-H1437, the relative viability worked out at 0.496 in the assay with BX 795 + Trametinib (first compound 0.04 µM); 0.605 with BX 795 + Trametinib (first compound 0.1265 µM); 0.516 with BX 795 + Trametinib (first compound 0.4 µM); 0.538 with BX 795 + Trametinib (first compound 1.265 µM); 0.336 with BX 795 + Palbociclib (first compound 0.04 µM); 0.34 with BX 795 + Palbociclib (first compound 0.1265 µM). Moreover, the relative viability is 0.344 with BX 795 + Palbociclib (first compound 0.4 µM); 0.358 with BX 795 + Palbociclib (first compound 1.265 µM); 1.08 with BX 795 + Foretinib (first compound 0.04 µM); 1.25 with BX 795 + Foretinib (first compound 0.1265 µM); 1.39 with BX 795 + Foretinib (first compound 0.4 µM); 0.99 with BX 795 + Foretinib (first compound 1.265 µM). For the same cell line, the relative viability in the assay with BX 795 + Pictilisib (first compound 0.04 µM) amounted to 0.488; with BX 795 + Pictilisib (first compound 0.1265 µM), 0.411; with BX 795 + Pictilisib (first compound 0.4 µM) it was 0.417; with BX 795 + Pictilisib (first compound 1.265 µM), 0.55; in the assay with BX 795 + Crizotinib (first compound 0.04 µM), 0.871; in the assay with BX 795 + Crizotinib (first compound 0.1265 µM), 0.96. The figures for the relative viability with BX 795 + Crizotinib (first compound 0.4 µM) and with BX 795 + Crizotinib (first compound 1.265 µM) were 1.03 and 0.562, respectively.

With NCI-H460, the relative viability with BX 795 + Trametinib (first compound 0.04 µM) is 0.265; with BX 795 + Trametinib (first compound 0.1265 µM) it was 0.138; with BX 795 + Trametinib (first compound 0.4 µM), 0.13; in the assay with BX 795 + Trametinib (first compound 1.265 µM), 0.12; with BX 795 + Palbociclib (first compound 0.04 µM), 0.163; with BX 795 + Palbociclib (first compound 0.1265 µM), 0.156. Besides, the relative viability with BX 795 + Palbociclib (first compound 0.4 µM) was found to be 0.0784; in the assay with BX 795 + Palbociclib (first compound 1.265 µM), 0.149; with BX 795 + Foretinib (first compound 0.04 µM) it was 1.03; with BX 795 + Foretinib (first compound 0.1265 µM) it was 1.16; in the assay with BX 795 + Foretinib (first compound 0.4 µM) it was 1.01; in the assay with BX 795 + Foretinib (first compound 1.265 µM) it was 0.922. Also, the relative viability in the assay with BX 795 + Pictilisib (first compound 0.04 µM) worked out at 0.361; in the assay with BX 795 + Pictilisib (first compound 0.1265 µM), 0.418; with BX 795 + Pictilisib (first compound 0.4 µM), 0.374; with BX 795 + Pictilisib (first compound 1.265 µM) it was 0.261; in the assay with BX 795 + Crizotinib (first compound 0.04 µM), 0.859; with BX 795 + Crizotinib (first compound 0.1265 µM) it was 1.17. Further, the relative viability with BX 795 + Crizotinib (first compound 0.4 µM) worked out at 0.684; with BX 795 + Crizotinib (first compound 1.265 µM), 0.192.

In the case of NCI-H3122, the relative viability with BX 795 + Trametinib (first compound 0.04 µM) came to 0.216; with BX 795 + Trametinib (first compound 0.1265 µM), 0.312; in the assay with BX 795 + Trametinib (first compound 0.4 µM) it was 0.248; in the assay with BX 795 + Trametinib (first compound 1.265 µM), 0.26; with BX 795 + Palbociclib (first compound 0.04 µM), 0.182; with BX 795 + Palbociclib (first compound 0.1265 µM) it was 0.221. The relative viability is 0.208 in the assay with BX 795 + Palbociclib (first compound 0.4 µM); 0.226 with BX 795 + Palbociclib (first compound 1.265 µM); 1.01 with BX 795 + Foretinib (first compound 0.04 µM); 1.04 with BX 795 + Foretinib (first compound 0.1265 µM); 1 with BX 795 + Foretinib (first compound 0.4 µM); 0.992 with BX 795 + Foretinib (first compound 1.265 µM). For the same cell line, the relative viability in the assay with BX 795 + Pictilisib (first compound 0.04 µM) was 0.588; in the assay with BX 795 + Pictilisib (first compound 0.1265 µM) it was 0.656; with BX 795 + Pictilisib (first compound 0.4 µM), 0.588; with BX 795 + Pictilisib (first compound 1.265 µM), 0.595; with BX 795 + Crizotinib (first compound 0.04 µM) it was 0.293; with BX 795 + Crizotinib (first compound 0.1265 µM), 0.266. Further, the values for the relative viability with BX 795 + Crizotinib (first compound 0.4 µM) and with BX 795 + Crizotinib (first compound 1.265 µM) were 0.282 and 0.296, respectively.

As to LCLC-97TM1, the relative viability with BX 795 + Trametinib (first compound 0.04 µM) was 0.203; with BX 795 + Trametinib (first compound 0.1265 µM), 0.19; with BX 795 + Trametinib (first compound 0.4 µM) it was 0.179; with BX 795 + Trametinib (first compound 1.265 µM) it was 0.166; in the assay with BX 795 + Palbociclib (first compound 0.04 µM) it was 0.22; in the assay with BX 795 + Palbociclib (first compound 0.1265 µM), 0.201. The relative viability with BX 795 + Palbociclib (first compound 0.4 µM) amounted to 0.314; with BX 795 + Palbociclib (first compound 1.265 µM) it was 0.208; in the assay with BX 795 + Foretinib (first compound 0.04 µM) it was 0.912; with BX 795 + Foretinib (first compound 0.1265 µM), 0.913; with BX 795 + Foretinib (first compound 0.4 µM) it was 0.862; in the assay with BX 795 + Foretinib (first compound 1.265 µM), 0.567. The relative viability turned out to be 0.186 in the assay with BX 795 + Pictilisib (first compound 0.04 µM); 0.163 in the assay with BX 795 + Pictilisib (first compound 0.1265 µM); 0.206 with BX 795 + Pictilisib (first compound 0.4 µM); 0.137 in the assay with BX 795 + Pictilisib (first compound 1.265 µM); 0.475 with BX 795 + Crizotinib (first compound 0.04 µM); 0.431 with BX 795 + Crizotinib (first compound 0.1265 µM). The relative viability was found to be 0.306 with BX 795 + Crizotinib (first compound 0.4 µM) and 0.209 with BX 795 + Crizotinib (first compound 1.265 µM).

In the case of EPLC-272H, the relative viability was found to be 0.293 with BX 795 + Trametinib (first compound 0.04 µM); 0.32 in the assay with BX 795 + Trametinib (first compound 0.1265 µM); 0.275 in the assay with BX 795 + Trametinib (first compound 0.4 µM); 0.325 with BX 795 + Trametinib (first compound 1.265 µM); 0.352 with BX 795 + Palbociclib (first compound 0.04 µM); 0.419 with BX 795 + Palbociclib (first compound 0.1265 µM). Besides, the relative viability was 0.317 with BX 795 + Palbociclib (first compound 0.4 µM); 0.387 with BX 795 + Palbociclib (first compound 1.265 µM); 0.739 in the assay with BX 795 + Foretinib (first compound 0.04 µM); 0.721 with BX 795 + Foretinib (first compound 0.1265 µM); 0.653 with BX 795 + Foretinib (first compound 0.4 µM); 0.527 with BX 795 + Foretinib (first compound 1.265 µM). Moreover, the relative viability amounted to 0.364 with BX 795 + Pictilisib (first compound 0.04 µM); 0.308 in the assay with BX 795 + Pictilisib (first compound 0.4 µM); 0.304 with BX 795 + Pictilisib (first compound 1.265 µM); 0.984 with BX 795 + Crizotinib (first compound 0.04 µM); 0.922 with BX 795 + Crizotinib (first compound 0.4 µM); 0.813 with BX 795 + Crizotinib (first compound 1.265 µM).

For the cell line LOU-NH91, the relative viability with BX 795 + Trametinib (first compound 0.04 µM) came out at 0.724; with BX 795 + Trametinib (first compound 0.1265 µM) it was 0.788; with BX 795 + Trametinib (first compound 0.4 µM), 0.763; in the assay with BX 795 + Trametinib (first compound 1.265 µM), 0.734; with BX 795 + Palbociclib (first compound 0.04 µM), 0.5; with BX 795 + Palbociclib (first compound 0.1265 µM) it was 0.478. In addition, the relative viability with BX 795 + Palbociclib (first compound 0.4 µM) worked out at 0.558; in the assay with BX 795 + Palbociclib (first compound 1.265 µM), 0.5; with BX 795 + Foretinib (first compound 0.04 µM), 0.936; with BX 795 + Foretinib (first compound 0.1265 µM), 0.922; in the assay with BX 795 + Foretinib (first compound 0.4 µM) it was 0.934; with BX 795 + Foretinib (first compound 1.265 µM), 0.979. The relative viability with BX 795 + Pictilisib (first compound 0.04 µM) came out at 0.509; with BX 795 + Pictilisib (first compound 0.1265 µM), 0.507; with BX 795 + Pictilisib (first compound 0.4 µM), 0.541; in the assay with BX 795 + Pictilisib (first compound 1.265 µM), 0.5; in the assay with BX 795 + Crizotinib (first compound 0.04 µM), 0.768; in the assay with BX 795 + Crizotinib (first compound 0.1265 µM), 0.721. Also, the relative viability with BX 795 + Crizotinib (first compound 0.4 µM) amounted to 0.715; with BX 795 + Crizotinib (first compound 1.265 µM), 0.796.

Turning to LC-2-ad, the relative viability in the assay with BX 795 + Trametinib (first compound 0.04 µM) was determined as 0.886; with BX 795 + Trametinib (first compound 0.1265 µM), 0.95; with BX 795 + Trametinib (first compound 0.4 µM), 0.646; in the assay with BX 795 + Trametinib (first compound 1.265 µM), 0.662; with BX 795 + Palbociclib (first compound 0.04 µM), 0.476; with BX 795 + Palbociclib (first compound 0.1265 µM), 0.493. Further, the relative viability with BX 795 + Palbociclib (first compound 0.4 µM) was determined as 0.408; with BX 795 + Palbociclib (first compound 1.265 µM), 0.483; with BX 795 + Foretinib (first compound 0.04 µM), 1.12; with BX 795 + Foretinib (first compound 0.1265 µM) it was 0.867; with BX 795 + Foretinib (first compound 0.4 µM) it was 0.981; with BX 795 + Foretinib (first compound 1.265 µM), 0.808. For the same cell line, the relative viability with BX 795 + Pictilisib (first compound 0.04 µM) came out at 0.471; with BX 795 + Pictilisib (first compound 0.1265 µM), 0.387; with BX 795 + Pictilisib (first compound 0.4 µM), 0.333; in the assay with BX 795 + Pictilisib (first compound 1.265 µM), 0.202; with BX 795 + Crizotinib (first compound 0.04 µM) it was 0.558; with BX 795 + Crizotinib (first compound 0.1265 µM), 0.316. For the same cell line, the results for the relative viability with BX 795 + Crizotinib (first compound 0.4 µM) and with BX 795 + Crizotinib (first compound 1.265 µM) were 0.325 and 0.402, respectively.
